Five substances from article PMC5269379 (Organic letters, 2016) can be followed below.

Entries after “also recorded” stand apart in the source; their conditions may differ.

In one series the test system is rabbit red blood cells. In words: Synergistic hemolytic activity in combination with CylLL″. It counts as cell-based. Particulars: Figure S6.
The next series has as its system L. lactis 481. It counts as cell-based, Lactococcus lactis. As to conditions: for combined with CylLL″ MIC: concentration of each component; for combined with CylLL″ MIC / individual MIC: L. lactis 481; for individual MIC: peptide alone.
In series [1] the test system is Lactococcus lactis HP and L. lactis CNRZ 481. In words: Antimicrobial activity assay. Format: cell-based. Particulars: in combination with CylLL″; Figures S2, S5.

Consider “cytolysin S [CylLS″, reference compound]”, for which the “hemolytic activity (in words)” value in the series with rabbit red blood cells is “very similar hemolytic activity”. Moreover, the “combined with CylLL″ MIC” value in the series on L. lactis 481 (combined with CylLL″) came to 0.05 µM. Also, the “individual MIC” value in the series with L. lactis 481 was more than 50 µM.
Consider “CylLS″-Dhb2Dha (DL-A ring, DL-B ring) [compound 11]”, for which the “antimicrobial activity (in words)” value in series [1] is “decreased antimicrobial activity; also recorded: markedly smaller zone of growth inhibition”. In the series with rabbit red blood cells, the “hemolytic activity (in words)” value is “no decrease of hemolytic activity”. Moreover, the “combined with CylLL″ MIC” value in the series on L. lactis 481 (combined with CylLL″) turned out to be 1.0 µM. The “fold increase of MIC in liquid culture” value in the series with L. lactis 481 (combined with CylLL″, liquid culture) was 10 fold. Moreover, the “individual MIC” value with L. lactis 481 was more than 50 µM.
With “cytolysin L [CylLL″, reference compound]”, the “individual MIC” value in the series on L. lactis 481 was more than 50 µM.
As for CylLS″-Dhb2Dha [biosynthetic 12], the “antimicrobial activity (in words)” value in series [1] is “very similar antimicrobial activity”. Also, the “hemolytic activity (in words)” value in the series on rabbit red blood cells is reported as “very similar hemolytic activity”. The “combined with CylLL″ MIC” value in the series on L. lactis 481 (combined with CylLL″) came out at 0.1 µM. Also, the “individual MIC” value in the series with L. lactis 481 is more than 50 µM.
“CylLS″-Dhb2Dha (LL-A ring, DL-B ring) [synthetic 12]”: the “antimicrobial activity (in words)” value in series [1] was “identical antimicrobial activity”. Further, in the series on L. lactis 481 (combined with CylLL″), the “combined with CylLL″ MIC” value stood at 0.1 µM. In addition, the “individual MIC” value in the series with L. lactis 481 is more than 50 µM.
